The results in this text go back to US20230085307A1, “PYRIDAZINONE COMPOUND AND HERBICIDE” (NISSAN CHEMICAL CORPORATION, priority 2019, published 2023).

What all share (settings): amount of applied herbicide 320 g/ha
Series [1] deals with barnyard grass. Briefly: Test Example 3: herbicidal effect by foliage application, Wagner pot (Table 18, symbol H). It counts as in vivo, barnyard grass (Echinochloa crus-galli). Put shortly: (§1)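 Plants were sown in alluvial soil held under 0.1–0.5 cm standing water and grown 14 days in a greenhouse at 25–30 °C. An emulsifiable formulation, water-diluted to the set dose, was then sprayed onto the foliage, and effects were scored three weeks later using previously defined criteria.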

A further series has as its system Chinese sprangletop. As to the kind of experiment: Test Example 3: herbicidal effect by foliage application, Wagner pot (Table 18, symbol D). It counts as in vivo, chinese sprangletop (Leptochloa chinensis). Summed up:
as §1

The next series deals with rice flat sedge. Briefly: Test Example 3: herbicidal effect by foliage application, Wagner pot (Table 18, symbol E). It counts as in vivo, rice flat sedge (Cyperus iria). Summed up:
as §1

For the next series, the system named is directly sowed rice. Briefly: Test Example 3: effect on crop by foliage application, Wagner pot (Table 18, symbol b). The format is in vivo. How it is done: [Test Example 3] Herbicidal Effect Test by Foliage Application After alluvial soil was placed into 1/10000 are of Wagner pot, water was poured and mixed to form a submerged condition having a water depth of 0.1 cm to 0.5 cm. Seeds of barnyard grass, Chinese sprangletop, rice flat sedge, and rice were sowed and the pot was placed in a greenhouse at 25° C. to 30° C. for growth of the plants. After 14-day growth of the plants, the emulsion agent of the compound of the present invention prepared according to Formulation Example 2 was diluted with water so as to achieve a predetermined herbicide amount, and the diluted emulsion agent was uniformly applied to a foliage part with a small-sized spray. Three weeks after the herbicide application, the effect of the herbicide on each plant was evaluated according to the criteria of Test Example 1.

In another series the test system is southern crabgrass. As to the kind of experiment: Test Example 4: herbicidal effect by soil treatment (Table 19, symbol F). It counts as in vivo, southern crabgrass (Digitaria ciliaris). Summed up: (§2)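 Three weeks of greenhouse growth at 25° C. to 30° C. followed a uniform surface spray of water-diluted emulsion at a predetermined herbicide amount. Seeds had been sown beforehand under about 1.5 cm of sterilized diluvial soil. Grading followed criteria set out in an earlier test.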

For a further series, the system named is green foxtail. As to the kind of experiment: Test Example 4: herbicidal effect by soil treatment (Table 19, symbol G). The format is in vivo, green foxtail (Setaria viridis). Summed up: as §2
Series [2] relates to barnyard grass. Briefly: Test Example 4: herbicidal effect by soil treatment (Table 19, symbol H). It counts as in vivo, barnyard grass (Echinochloa crus-galli). Summed up: as §2
The test system of a further series is wild oat. As to the kind of experiment: Test Example 4: herbicidal effect by soil treatment (Table 19, symbol I). The format is in vivo, wild oat (Avena fatua). Put shortly:
as §2

A further series has as its system blackgrass. As to the kind of experiment: Test Example 4: herbicidal effect by soil treatment (Table 19, symbol J). The format is in vivo, blackgrass (Alopecurus myosuroides). Summed up: as §2
The next series concerns Italian ryegrass. As to the kind of experiment: Test Example 4: herbicidal effect by soil treatment (Table 19, symbol K). It counts as in vivo, Italian ryegrass (Lolium multiflorum). Summed up: as §2
In a further series the test system is windgrass. Briefly: Test Example 4: herbicidal effect by soil treatment (Table 19, symbol L). It counts as in vivo, windgrass (Apera spica-venti). Put shortly:
as §2

The next series has as its system velvetleaf. Briefly: Test Example 4: herbicidal effect by soil treatment (Table 19, symbol M). It counts as in vivo, velvetleaf (Abutilon theophrasti). Put shortly:
as §2

Another series relates to redroot pigweed. As to the kind of experiment: Test Example 4: herbicidal effect by soil treatment (Table 19, symbol N). It counts as in vivo, redroot pigweed (Amaranthus retroflexus). Summed up: as §2
The subject of another series is lambsquarters. Briefly: Test Example 4: herbicidal effect by soil treatment (Table 19, symbol O). It counts as in vivo, lambsquarters (Chenopodium album). Summed up: as §2
The next series has as its system chickweed. Briefly: Test Example 4: herbicidal effect by soil treatment (Table 19, symbol P). The format is in vivo, common chickweed (Stellaria media). Summed up:
as §2

Another series deals with persian speedwell. As to the kind of experiment: Test Example 4: herbicidal effect by soil treatment (Table 19, symbol R). The format is in vivo, Persian speedwell (Veronica persica). Put shortly: as §2
The subject of a further series is corn. As to the kind of experiment: Test Example 4: effect on crop by soil treatment (Table 19, symbol c). The format is in vivo. From the text: (§3) [Test Example 4] Herbicidal Effect Test by Soil Treatment
(§4) Sterilized diluvial soil was placed in a plastic box having a length of 21 cm, a width of 13 cm, and a depth of 7 cm. The seeds of each of southern crabgrass, green foxtail, barnyard grass, wild oat, blackgrass, Italian ryegrass, windgrass, velvetleaf, redroot pigweed, lambsquarters, chickweed, false cleavers, persian speedwell, corn, soybean, rice, wheat, beet, and rapeseed were sowed in a spot-like manner and covered with the soil having a thickness of about 1.5 cm. Subsequently, the emulsion agent of the compound of the present invention prepared according to Formulation Example 2 was diluted with water so as to achieve a predetermined herbicide amount, and the diluted emulsion agent was uniformly applied to the surface of the soil with a small-sized spray. The plastic box was placed in a greenhouse at 25° C. to 30° C. for growth of the plants. Three weeks after the herbicide application, the effect of the herbicide on each plant was evaluated according to the criteria of Test Example 1.

A further series deals with soybean. As to the kind of experiment: Test Example 4: effect on crop by soil treatment (Table 19, symbol d). The format is in vivo.
Source text: as §3, §4

The test system of another series is wheat. Briefly: Test Example 4: effect on crop by soil treatment (Table 19, symbol e). The format is in vivo.
Source text: as §3, §4

Turning to `COc1ccccc1-c1sc2ccc(C3CC3)cc2c1-c1c(O)c(C)nn(C)c1=O` [Compound No. 2-160, 4-(5-cyclopropyl-2-(2-methoxyphenyl)benzo[b]thiophen-3-yl)-5-hydroxy-2,6-dimethylpyridazin-3(2H)-one], the “herbicidal effect on H: barnyard grass” value in the series with barnyard grass [1] was 4 (Herbicidal rate of 70% or more and less than 90%). Also, in the series with Chinese sprangletop, the “herbicidal effect on D: Chinese sprangletop” value is 3 (Herbicidal rate of 40% or more and less than 70%). Also, in the series with rice flat sedge, the “herbicidal effect on E: rice flat sedge” value was 3 (Herbicidal rate of 40% or more and less than 70%). Further, the “effect on crop b: directly sowed rice” value with directly sowed rice was 0 (Herbicidal rate of 5% or less (almost no effect)). Besides, the “F: southern crabgrass, herbicidal effect rating” value in the series with southern crabgrass was 0 (Herbicidal rate of 5% or less (almost no effect)). For the same compound, in the series on green foxtail, the “G: green foxtail, herbicidal effect rating” value was 0 (Herbicidal rate of 5% or less (almost no effect)). Moreover, the “H: barnyard grass, herbicidal effect rating” value with barnyard grass [2] is 0 (Herbicidal rate of 5% or less (almost no effect)). Further, in the series on wild oat, the “I: wild oat, herbicidal effect rating” value was 0 (Herbicidal rate of 5% or less (almost no effect)). Further, in the series on blackgrass, the “J: blackgrass, herbicidal effect rating” value was 0 (Herbicidal rate of 5% or less (almost no effect)). The “K: Italian ryegrass, herbicidal effect rating” value with Italian ryegrass was 0 (Herbicidal rate of 5% or less (almost no effect)). Further, the “L: windgrass, herbicidal effect rating” value in the series on windgrass is 3 (Herbicidal rate of 40% or more and less than 70%). Further, the “M: velvetleaf, herbicidal effect rating” value with velvetleaf was 0 (Herbicidal rate of 5% or less (almost no effect)). Also, the “N: redroot pigweed, herbicidal effect rating” value in the series with redroot pigweed is on record as 0 (Herbicidal rate of 5% or less (almost no effect)). Also, in the series on lambsquarters, the “O: lambsquarters, herbicidal effect rating” value is recorded as 0 (Herbicidal rate of 5% or less (almost no effect)). For the same compound, the “P: chickweed, herbicidal effect rating” value with chickweed is 1 (Herbicidal rate of 5% or more and less than 20%). In addition, the “R: persian speedwell, herbicidal effect rating” value in the series with persian speedwell is 1 (Herbicidal rate of 5% or more and less than 20%). Further, the “c: corn, effect on crop rating” value in the series with corn is recorded as 0 (Herbicidal rate of 5% or less (almost no effect)). Moreover, the “d: soybean, effect on crop rating” value in the series on soybean was 0 (Herbicidal rate of 5% or less (almost no effect)). For the same compound, the “e: wheat, effect on crop rating” value in the series with wheat is 0 (Herbicidal rate of 5% or less (almost no effect)).
